Reference: ChEMBL document CHEMBL1201862, “PubChem BioAssay data set” (2004)
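In this assay, cells in 96-well plates receive the compound at five concentrations for 48 hours. Endpoints are linearly interpolated between the surrounding concentrations. GI50 is the concentration that inhibits growth by half.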 Activity calls are given as the source filed them. Cut-off read from the data, not from the text of the source: active = GI50 up to about 1.1 µM and inactive = higher.

Assays:
Assay in all cases: DTP human tumour cell line panel, 48 h
M14 = test system: M14
HCT-15 = test system: HCT-15
HOP-62 = test system: HOP-62
SK-MEL-28 = test system: SK-MEL-28
RXF 393 = test system: RXF 393
UACC-257 = test system: UACC-257
SF-268 = test system: SF-268
KM12 = test system: KM12
RPMI-8226 = test system: RPMI-8226
NCI-H226 = test system: NCI-H226
EKVX = test system: EKVX
SK-MEL-5 = test system: SK-MEL-5
SN12C = test system: SN12C
NCI-H522 = test system: NCI-H522
K562 = test system: K562
TK-10 = test system: TK-10
BT-549 = test system: BT-549
COLO 205 = test system: COLO 205
MDA-MB-231 = test system: MDA-MB-231
CAKI-1 = test system: CAKI-1

| Compound | GI50 (M14) | GI50 (HCT-15) [µM] | GI50 (HOP-62) | GI50 (SK-MEL-28) | GI50 (RXF 393) | GI50 (UACC-257) | GI50 (SF-268) | GI50 (KM12) | GI50 (RPMI-8226) | GI50 (NCI-H226) | GI50 (EKVX) | GI50 (SK-MEL-5) | GI50 (SN12C) | GI50 (NCI-H522) | GI50 (K562) | GI50 (TK-10) | GI50 (BT-549) | GI50 (COLO 205) | GI50 (MDA-MB-231) | GI50 (CAKI-1) |
| --- | --- | --- | --- | --- | --- | --- | --- | --- | --- | --- | --- | --- | --- | --- | --- | --- | --- | --- | --- | --- |
| CCN(CC)c1ccc2cc(-c3nnc(-c4ccccc4)o3)c(=O)oc2c1 | 32.1 µM (inactive) | 6.35 | 17.6 µM (inactive) | > 85.3 µM (inactive) | 14.5 µM (inactive) | 32.5 µM (inactive) | 28 µM (inactive) | 46.7 µM (inactive) | 12.1 µM (inactive) | 29.4 µM (inactive) | 59.8 µM (inactive) | 29.5 µM (inactive) | 31.4 µM (inactive) | 28.8 µM (inactive) | 1.4 µM (inactive) | 25.4 µM (inactive) | > 57.1 µM (inactive) | 20.3 µM (inactive) | 22.9 µM (inactive) | > 45.7 µM (inactive) |
| O=C1NC(=O)C(c2c[nH]c3ccccc23)=C1c1cnc[nH]1 | > 100 µM (inactive) | > 100 | > 100 µM (inactive) | > 100 µM (inactive) | > 100 µM (inactive) | > 100 µM (inactive) | > 100 µM (inactive) | 45.2 µM (inactive) | 49 µM (inactive) | 1.79 µM (inactive) | > 100 µM (inactive) | 22.5 µM (inactive) | > 100 µM (inactive) | 56.8 µM (inactive) | 5.61 µM (inactive) | 89.5 µM (inactive) | 46.3 µM (inactive) | 49.5 µM (inactive) | > 100 µM (inactive) | > 100 µM (inactive) |
| Cc1ccc(C2=NOC(=O)[C@@H]3CCCC[C@@H]23)cc1 | > 100 µM (inactive) | > 100 | > 100 µM (inactive) | > 100 µM (inactive) | > 100 µM (inactive) | > 100 µM (inactive) | > 100 µM (inactive) | > 100 µM (inactive) | > 100 µM (inactive) | > 100 µM (inactive) | > 100 µM (inactive) | > 100 µM (inactive) | > 100 µM (inactive) | > 100 µM (inactive) | > 100 µM (inactive) | > 100 µM (inactive) | > 100 µM (inactive) | > 100 µM (inactive) | 75.3 µM (inactive) | > 100 µM (inactive) |
| c1ccc(-c2c(-c3[nH]c4ccccc4c3-c3ccccc3)[nH]c3ccccc23)cc1 | 3.54 µM (inactive) | 4.32 | 2.55 µM (inactive) | 11.4 µM (inactive) | 1.82 µM (inactive) | 12.3 µM (inactive) | 6.47 µM (inactive) | 3.03 µM (inactive) | 2.94 µM (inactive) | 11.6 µM (inactive) | 3.89 µM (inactive) | 4.16 µM (inactive) | 1.91 µM (inactive) | 3.18 µM (inactive) | 4.03 µM (inactive) | 10.6 µM (inactive) | 4.56 µM (inactive) | 1.91 µM (inactive) | 3.4 µM (inactive) | 3.33 µM (inactive) |
| COc1ccc2c(-c3ccc(O)cc3)c(Oc3ccc(Cl)cc3)c(=O)oc2c1 | 6.07 µM (inactive) | 4.66 | 12.9 µM (inactive) | 7.71 µM (inactive) | 8.34 µM (inactive) | 8.95 µM (inactive) | 8.07 µM (inactive) | 5.75 µM (inactive) | 3.99 µM (inactive) | > 20.6 µM (inactive) | 3.14 µM (inactive) | 3.48 µM (inactive) | 4.6 µM (inactive) | 2.55 µM (inactive) | 7.21 µM (inactive) | 5.48 µM (inactive) | 8.75 µM (inactive) | 6.08 µM (inactive) | 5.13 µM (inactive) | 2.81 µM (inactive) |
| COc1c2c(cc3c1C(O)N1CC[C@]34[C@H]3O[C@H]3[C@H](OC)C[C@@H]14)OCO2 (stereo not given in full) | 85.3 µM (inactive) | 67.3 | 35.8 µM (inactive) | > 100 µM (inactive) | 67.5 µM (inactive) | 64.6 µM (inactive) | > 100 µM (inactive) | 73.1 µM (inactive) | 82 µM (inactive) | > 100 µM (inactive) | > 100 µM (inactive) | 64.6 µM (inactive) | > 100 µM (inactive) | 31.9 µM (inactive) | 48 µM (inactive) | > 100 µM (inactive) | > 100 µM (inactive) | 97.9 µM (inactive) | > 100 µM (inactive) | > 100 µM (inactive) |
| COc1ccc(Oc2ccc3cc4c(cc3c2O)OCO4)c2cc(C)oc12 | 26.6 µM (inactive) | 22.1 | 41.1 µM (inactive) | 47.5 µM (inactive) | 15.7 µM (inactive) | 20.8 µM (inactive) | 36 µM (inactive) | 28.3 µM (inactive) | 14.9 µM (inactive) | 25.4 µM (inactive) | 28.7 µM (inactive) | 16.4 µM (inactive) | 29.6 µM (inactive) | 20.9 µM (inactive) | 14.6 µM (inactive) | 25.4 µM (inactive) | 22.5 µM (inactive) | 25.5 µM (inactive) | 33.9 µM (inactive) | 30.1 µM (inactive) |
| O=C(O)c1ccccc1CC1Cc2ccc3c(c2C1=O)CCC3 (stereo not given) | 61.8 µM (inactive) | > 100 | > 100 µM (inactive) | > 100 µM (inactive) | > 100 µM (inactive) | > 100 µM (inactive) | > 100 µM (inactive) | > 100 µM (inactive) | > 100 µM (inactive) | > 100 µM (inactive) | > 100 µM (inactive) | > 100 µM (inactive) | > 100 µM (inactive) | > 100 µM (inactive) | > 100 µM (inactive) | > 100 µM (inactive) | > 100 µM (inactive) | > 100 µM (inactive) | > 100 µM (inactive) | > 100 µM (inactive) |
| FC(F)(F)c1ccc2c(c1)nc(Cc1ccc(Cl)c(Cl)c1)n2CC1CCCN2CCCCC12 (stereo not given) | 12.4 µM (inactive) | 30.8 | 31 µM (inactive) | 21.1 µM (inactive) | 23.6 µM (inactive) | 18.5 µM (inactive) | 27.8 µM (inactive) | 24.4 µM (inactive) | 57 µM (inactive) | 26.5 µM (inactive) | 21.2 µM (inactive) | 16.4 µM (inactive) | 20.3 µM (inactive) | 14.2 µM (inactive) | 32.5 µM (inactive) | 19.1 µM (inactive) | 28.6 µM (inactive) | 16.1 µM (inactive) | 15.3 µM (inactive) | 29.7 µM (inactive) |
| O=C1/C(=C/c2ccc(Cl)cc2)Oc2cc(O)ccc21 [6-HYDROXY-4'-CHLORO AURONE] | 50.6 µM (inactive) | 32.6 | 32.7 µM (inactive) | 59.6 µM (inactive) | 39.4 µM (inactive) | 31.2 µM (inactive) | 52.8 µM (inactive) | 38.5 µM (inactive) | 30.6 µM (inactive) | 28.2 µM (inactive) | 29.2 µM (inactive) | 23.4 µM (inactive) | 29.8 µM (inactive) | 23.8 µM (inactive) | 19.1 µM (inactive) | 30.5 µM (inactive) | 26.8 µM (inactive) | > 100 µM (inactive) | 34.6 µM (inactive) | > 10 µM (inactive) |
